Results taken from patent publication US12617783B2, “Heterocyclic GLP-1R agonists” (BIOMEA FUSION, INC., priority 2024, dated 2026).

The compounds below were run against T1, human GLP-1R (Homo sapiens, UniProt P43220) (assay: GLP-1R cAMP assay (Example B1a, HTRF, 30 min at room temperature)). Details: cAMP accumulation in HEK293 expressing human GLP-1R, no BETP, 30 min room temperature (Method B1a, compounds ID 1-609), Table 1; read-out: EC50.
T1 construct: host or cells: HEK293
Type: cell-based
Procedure, shortened: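 Competitive HTRF read-out of cAMP after 30 min room-temperature stimulation, BETP absent, of human GLP-1R-HEK293 cells (1,000/well) in HEPES buffer with 500 μM IBMX and 0.1% BSA. Activation normalised to GLP-1(7-37) positive control. EC50 from 4-parameter non-linear regression.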

T1 sequence (P43220 24-463): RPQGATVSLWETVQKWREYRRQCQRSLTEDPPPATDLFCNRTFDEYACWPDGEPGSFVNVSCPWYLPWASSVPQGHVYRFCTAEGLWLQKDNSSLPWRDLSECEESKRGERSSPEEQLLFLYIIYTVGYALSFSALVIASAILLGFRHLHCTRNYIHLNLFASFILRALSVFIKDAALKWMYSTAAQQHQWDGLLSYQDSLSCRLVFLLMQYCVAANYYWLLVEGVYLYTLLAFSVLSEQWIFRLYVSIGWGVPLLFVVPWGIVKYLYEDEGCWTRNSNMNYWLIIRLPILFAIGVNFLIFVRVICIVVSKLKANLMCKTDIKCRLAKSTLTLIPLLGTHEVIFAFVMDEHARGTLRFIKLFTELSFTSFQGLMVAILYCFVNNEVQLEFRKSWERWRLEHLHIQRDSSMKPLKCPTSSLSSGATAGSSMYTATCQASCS

SMILES | EC50 [nM]
Cc1cc(-n2nc3c(c2-n2ccn(-c4ccc5c(cnn5C)c4F)c2=O)[C@@H]2CC[C@H](C3)N2S(=O)(=O)c2cc3cc([C@H]4CCOC(C)(C)C4)ccc3n2[C@@]2(c3noc(=O)[nH]3)C[C@@H]2C)cc(C)c1F [Compound 525, 3-[(1S,2S)-1-[5-[(4S)-2,2-dimethyltetrahydropyran-4-yl]-2-[[(1S,8R)-4-(4-fluoro-3,5-dimethyl-phenyl)-3-[3-(4-fluoro-1-methyl-indazol-5-yl)-2-oxo-imidazol-1-yl]-4,5,11-triazatricyclo[6.2.1.02,6]undeca-2,5-dien-11-yl]sulfonyl]indol-1-yl]-2-methyl-cyclopropyl]-4H-1,2,4-oxadiazol-5-one] | 58.4
Cc1cc(-n2nc3c(c2-n2ccn(-c4ccc5c(cnn5C)c4F)c2=O)[C@@H]2COC[C@H](C3)N2S(=O)(=O)c2cc3cc(C4CCOCC4)ccc3n2[C@@]2(c3noc(=O)[nH]3)C[C@@H]2C)cc(C)c1F [Compound 526, 3-[(1S,2S)-1-[2-[[(1R,8S)-4-(4-fluoro-3,5-dimethyl-phenyl)-3-[3-(4-fluoro-1-methyl-indazol-5-yl)-2-oxo-imidazol-1-yl]-10-oxa-4,5,12-triazatricyclo[6.3.1.02,6]dodeca-2,5-dien-12-yl]sulfonyl]-5-tetrahydropyran-4-yl-indol-1-yl]-2-methyl-cyclopropyl]-4H-1,2,4-oxadiazol-5-one] | 1130
Cc1cc(-n2nc3c(c2-n2ccn(-c4ccc5c(cnn5C)c4F)c2=O)[C@@H]2CCC[C@H](C3)N2S(=O)(=O)c2cc3cc([C@H]4CCOC(C)(C)C4)ccc3n2C2(c3noc(=O)[nH]3)C[C@@H]2C)cc(C)c1F (stereo partly drawn) [Compound 527, 3-[(2S)-1-[5-[(4S)-2,2-dimethyltetrahydropyran-4-yl]-2-[[(1S,8R)-4-(4-fluoro-3,5-dimethyl-phenyl)-3-[3-(4-fluoro-1-methyl-indazol-5-yl)-2-oxo-imidazol-1-yl]-4,5,12-triazatricyclo[6.3.1.02,6]dodeca-2,5-dien-12-yl]sulfonyl]indol-1-yl]-2-methyl-cyclopropyl]-4H-1,2,4-oxadiazol-5-one] | 975
Cc1cc(-n2nc3c(c2-n2ccn(-c4ccc5c(cnn5C)c4F)c2=O)[C@@H]2CC[C@H](C3)N2C(=O)c2cc3cc([C@H]4CCOC5(CC5)C4)ccc3n2[C@]2(c3noc(=O)[nH]3)C[C@@H]2C)cc(C)c1F [Compound 528, 3-[(1R,2S)-1-[2-[(1S,8R)-4-(4-fluoro-3,5-dimethyl-phenyl)-3-[3-(4-fluoro-1-methyl-indazol-5-yl)-2-oxo-imidazol-1-yl]-4,5,11-triazatricyclo[6.2.1.02,6]undeca-2,5-diene-11-carbonyl]-5-[(7S)-4-oxaspiro[2.5]octan-7-yl]indol-1-yl]-2-methyl-cyclopropyl]-4H-1,2,4-oxadiazol-5-one] | 1440
Cc1cc(-n2nc3c(c2-n2ccn(-c4ccc5c(cnn5C)c4F)c2=O)[C@@H]2CC[C@H](C3)N2C(=O)c2cc3cc([C@@H]4CCOC5(CC5)C4)ccc3n2[C@]2(c3noc(=O)[nH]3)C[C@@H]2C)cc(C)c1F [Compound 529, 3-[(1R,2S)-1-[2-[(1S,8R)-4-(4-fluoro-3,5-dimethyl-phenyl)-3-[3-(4-fluoro-1-methyl-indazol-5-yl)-2-oxo-imidazol-1-yl]-4,5,11-triazatricyclo[6.2.1.02,6]undeca-2,5-diene-11-carbonyl]-5-[(7R)-4-oxaspiro[2.5]octan-7-yl]indol-1-yl]-2-methyl-cyclopropyl]-4H-1,2,4-oxadiazol-5-one] | ≥ 10000
Cc1cc(-n2nc3c(c2-n2ccn(-c4ccc5c(cnn5C)c4F)c2=O)[C@H]2CC[C@@H](C3)N2C(=O)c2cc3cc([C@@H]4CCOC5(CC5)C4)ccc3n2[C@]2(c3noc(=O)[nH]3)C[C@@H]2C)cc(C)c1F [Compound 530, 3-[(1R,2S)-1-[2-[(1R,8S)-4-(4-fluoro-3,5-dimethyl-phenyl)-3-[3-(4-fluoro-1-methyl-indazol-5-yl)-2-oxo-imidazol-1-yl]-4,5,11-triazatricyclo[6.2.1.02,6]undeca-2,5-diene-11-carbonyl]-5-[(7R)-4-oxaspiro[2.5]octan-7-yl]indol-1-yl]-2-methyl-cyclopropyl]-4H-1,2,4-oxadiazol-5-one] | ≥ 10000
Cc1cc(-n2nc3c(c2-n2ccn(-c4ccc5c(cnn5C)c4F)c2=O)[C@H]2CC[C@@H](C3)N2C(=O)c2cc3cc([C@H]4CCOC5(CC5)C4)ccc3n2[C@]2(c3noc(=O)[nH]3)C[C@@H]2C)cc(C)c1F [Compound 531, 3-[(1R,2S)-1-[2-[(1R,8S)-4-(4-fluoro-3,5-dimethyl-phenyl)-3-[3-(4-fluoro-1-methyl-indazol-5-yl)-2-oxo-imidazol-1-yl]-4,5,11-triazatricyclo[6.2.1.02,6]undeca-2,5-diene-11-carbonyl]-5-[(7S)-4-oxaspiro[2.5]octan-7-yl]indol-1-yl]-2-methyl-cyclopropyl]-4H-1,2,4-oxadiazol-5-one] | ≥ 10000
Cc1cc(-n2nc3c(c2-n2ccn(-c4ccc5c(cnn5C)c4F)c2=O)[C@@H]2CC[C@H](C3)N2C(=O)c2c(C)c3cc([C@H]4CCOC(C)(C)C4)ccc3n2[C@@]2(c3noc(=O)[nH]3)C[C@@H]2C)cc(C)c1F [Compound 532, 3-[(1S,2S)-1-[5-[(4S)-2,2-dimethyltetrahydropyran-4-yl]-2-[(1S,8R)-4-(4-fluoro-3,5-dimethyl-phenyl)-3-[3-(4-fluoro-1-methyl-indazol-5-yl)-2-oxo-imidazol-1-yl]-4,5,11-triazatricyclo[6.2.1.02,6]undeca-2,5-diene-11-carbonyl]-3-methyl-indol-1-yl]-2-methyl-cyclopropyl]-4H-1,2,4-oxadiazol-5-one] | 672
Cc1cc(-n2nc3c(c2-n2ccn(-c4ccc5c(cnn5C)c4F)c2=O)[C@@H]2CCC[C@H](C3)N2S(=O)(=O)c2cc3cc(C4CCOCC4)ccc3n2[C@@]2(c3noc(=O)[nH]3)C[C@@H]2C)cc(C)c1F [Compound 533, 3-[(1S,2S)-1-[2-[[(1S,8R)-4-(4-fluoro-3,5-dimethyl-phenyl)-3-[3-(4-fluoro-1-methyl-indazol-5-yl)-2-oxo-imidazol-1-yl]-4,5,12-triazatricyclo[6.3.1.02,6]dodeca-2,5-dien-12-yl]sulfonyl]-5-tetrahydropyran-4-yl-indol-1-yl]-2-methyl-cyclopropyl]-4H-1,2,4-oxadiazol-5-one] | 10400
Cc1cc(-n2nc3c(c2-n2ccn(-c4ccc5c(cnn5C)c4F)c2=O)[C@@H]2CCC[C@H](C3)N2S(=O)(=O)c2cc3cc(C4CCOCC4)ccc3n2[C@]2(c3noc(=O)[nH]3)C[C@@H]2C)cc(C)c1F [Compound 534, 3-[(1R,2S)-1-[2-[[(1S,8R)-4-(4-fluoro-3,5-dimethyl-phenyl)-3-[3-(4-fluoro-1-methyl-indazol-5-yl)-2-oxo-imidazol-1-yl]-4,5,12-triazatricyclo[6.3.1.02,6]dodeca-2,5-dien-12-yl]sulfonyl]-5-tetrahydropyran-4-yl-indol-1-yl]-2-methyl-cyclopropyl]-4H-1,2,4-oxadiazol-5-one] | ≥ 10000
Cc1cc(-n2nc3c(c2-n2ccn(-c4ccc5c(cnn5C)c4F)c2=O)[C@@H]2CCC[C@H](C3)N2S(=O)(=O)c2cc3cc(N4CCOC5(CC5)C4)ccc3n2[C@@]2(c3noc(=O)[nH]3)C[C@@H]2C)cc(C)c1F [Compound 535, 3-[(1S,2S)-1-[2-[[(1S,8R)-4-(4-fluoro-3,5-dimethyl-phenyl)-3-[3-(4-fluoro-1-methyl-indazol-5-yl)-2-oxo-imidazol-1-yl]-4,5,12-triazatricyclo[6.3.1.02,6]dodeca-2,5-dien-12-yl]sulfonyl]-5-(4-oxa-7-azaspiro[2.5]octan-7-yl)indol-1-yl]-2-methyl-cyclopropyl]-4H-1,2,4-oxadiazol-5-one] | 1890
Cc1cc(-n2nc3c(c2-n2ccn(-c4ccc5c(cnn5C)c4F)c2=O)[C@@H]2COC[C@H](C3)N2S(=O)(=O)c2cc3cc([C@H]4CCOC(C)(C)C4)ccc3n2[C@@]2(c3noc(=O)[nH]3)C[C@@H]2C)cc(C)c1F [Compound 536, 3-((1S,2S)-1-(5-((S)-2,2-dimethyltetrahydro-2H-pyran-4-yl)-2-(((4R,8S)-3-(3-(4-fluoro-1-methyl-1H-indazol-5-yl)-2-oxo-2,3-dihydro-1H-imidazol-1-yl)-2-(4-fluoro-3,5-dimethylphenyl)-2,4,5,7,8,9-hexahydro-4,8-epiminooxocino [5,4-c]pyrazol-10-yl)sulfonyl)-1H-indol-1-yl)-2-methylcyclopropyl)-1,2,4-oxadiazol-5 (4H)-one] | 262
Cc1cc(-n2nc3c(c2-n2ccn(-c4ccc5c(cnn5C)c4F)c2=O)[C@@H]2CCC[C@H](C3)N2C(=O)c2c(C)c3cc([C@H]4CCOC(C)(C)C4)ccc3n2[C@@]2(c3noc(=O)[nH]3)C[C@@H]2C)cc(C)c1F [Compound 537, 3-[(1S,2S)-1-[5-[(4S)-2,2-dimethyltetrahydropyran-4-yl]-2-[(1S,8R)-4-(4-fluoro-3,5-dimethyl-phenyl)-3-[3-(4-fluoro-1-methyl-indazol-5-yl)-2-oxo-imidazol-1-yl]-4,5,12-triazatricyclo[6.3.1.02,6]dodeca-2,5-diene-12-carbonyl]-3-methyl-indol-1-yl]-2-methyl-cyclopropyl]-4H-1,2,4-oxadiazol-5-one] | 1340
Cc1cc(-n2nc3c(c2-n2ccn(-c4ccc5c(cnn5C)c4F)c2=O)[C@@H]2CCC[C@H](C3)N2S(=O)(=O)c2cc3cc(N4CCOC5(CC5)C4)ccc3n2[C@]2(c3noc(=O)[nH]3)C[C@@H]2C)cc(C)c1F [Compound 538, 3-[(1R,2S)-1-[2-[[(1S,8R)-4-(4-fluoro-3,5-dimethyl-phenyl)-3-[3-(4-fluoro-1-methyl-indazol-5-yl)-2-oxo-imidazol-1-yl]-4,5,12-triazatricyclo[6.3.1.02,6]dodeca-2,5-dien-12-yl]sulfonyl]-5-(4-oxa-7-azaspiro[2.5]octan-7-yl)indol-1-yl]-2-methyl-cyclopropyl]-4H-1,2,4-oxadiazol-5-one] | ≥ 10000
